Results: US20050222259A1, “Methods of activating PPAR-alpha nuclear receptors in mammals” (priority 2004, published 2005)

Assay: oral application of conjugated fatty acids: appetite, satiety and food intake
Type: in vivo
Settings: for appetite-reducing effect compared with other CLA isomers and non-conjugated linoleic acid: comparison of isomers

Molecule | appetite-reducing effect compared with other CLA isomers and non-conjugated linoleic acid | appetite-reducing effect compared with other CLA isomers and non-conjugated linoleic acid (listed as cis-9,trans-11 isomer of conjugated linoleic acid) | effect on appetite, satiety and food intake (oral application)
CCCCCC/C=C/C=C\CCCCCCCC(=O)O (single isomer, unassigned) [cis-9,trans-11 CLA-isomer, cis-9,trans-11 isomer of conjugated linoleic acid] | most efficacious in inhibiting appetite | more pronounced | –
conjugated linoleic acid [CLA] | – | – | reduction of appetite
